Source: patent US8158106B2, “Particle immobilized coatings and uses thereof” (Surmodics, Inc., priority 2001, dated 2012)

Columns and labels:
[1] = Printed slurries of photoreactive compound and microparticles, presence after washes; type: physicochemical; settings: slurry of 2.5 mg/ml compound and 20 mg/ml 9.9 μm silica microspheres printed, then irradiated
Protocol: Slurries were prepared, each containing different polymers and microparticles. These slurries were then disposed on a substrate and treated to form matrices in which microparticles were immobilized. Different polymeric materials were used to immobilize microparticles on a substrate. Four different photoreactive polymers were used to immobilize 9.9 μm diameter silica microparticles on substrates: […] BBDQ (as described in Example 4) a non-polymeric photoreactive material was also used in this Example. […] Each mixture was printed with 25 gauge disposable needles (PrecisionGlide Needles, Becton Dickinson and Co., Franklin Lakes, N.J.) and an x-y programmable stage (CAMM-3, Roland Digital Group, Irvine, Calif.) onto glass microscope slides which had been functionalized with silanes, as detailed in Example 1 and onto acrylic slides (Cadillac Plastics, Minneapolis, Minn.). This printing forms a pattern of approximately 300-400 μm diameter spots on the substrates. The coated substrates were irradiated for two minutes with ultraviolet light as detailed in Example 1. The coated substrates were then imaged with a fluorescence microscope (Olympus BX 60, Tokyo, Japan), to ensure that patterning was successful. Following this, the coated substrate was washed to remove any loosely bound microspheres. The coated substrates were washed three times with 1×PBS (pH 7.4) with 0.1% v/v Tween-20, rinsed with deionized water. At this point, each was again imaged with the fluorescence microscope to determine microsphere loss in the various photoreactive polymer matrices. After imaging, the coated substrates were incubated in a solution of T/E wash buffer for 1 hour at 50° C., followed by two rinses with deionized water. The coated substrates were then incubated in a solution of 4×SSC/0.1% SDS for two hours at 50° C. and rinsed in deionized water.

[2] = Entrapment of microparticles disposed on pre-irradiated photopolymer matrix spots, presence after washes; type: physicochemical; settings: 9.9 μm silica microparticles disposed on irradiated spots, compound 2.5 mg/ml
Source text: Different polymeric materials were used to immobilize microparticles on a substrate. First, different polymers were disposed and treated on a substrate to form matrices. This was followed by disposing the microparticles on the substrates which were immobilized via the matrices. Four different photoreactive polymers were used to immobilize 9.9 μm diameter silica microparticles on substrates. […] Pat. No. 5,714,360 to Swan et al., issued Feb., 3, 1998, commonly owned by the assignee of the present invention, the disclosure of which is incorporated herein in its entirety), a non-polymeric photoreactive compound, was evaluated. […] Each solution was printed with 25 gauge disposable needles (PrecisionGlide Needles, Becton Dickinson and Co., Franklin Lakes, N.J.) and an x-y programmable stage (CAMM-3, Roland Digital Group, Irvine, Calif.) onto glass microscope slides which had been functionalized with silanes, as in Example 1, and onto acrylic slides (Cadillac Plastics, Minneapolis, Minn.). This printing forms a pattern of approximately 300-400 μm diameter spots on the substrates. The patterned slides were irradiated for two minutes with ultraviolet light as detailed in Example 1. After irradiation, 500 μl of an aqueous solution of 2 mg/ml 9.9 μm diameter silica microparticles (S[…], Bangs Laboratories, Fisher, Ind.) was placed over the patterned area for one minute to allow the microparticles to associate and become entrapped in the polymer matrices. The slides were then rinsed with 0.1% v/v Tween-20 aqueous solution to remove any free microparticles. Following this, the array was washed to remove loosely bound microspheres. The array was washed three times with 1×PBS (pH 7.4) with 0.1% v/v Tween-20, and then rinsed with deionized water. […] After imaging, the arrays were incubated in a solution of 0.1M TRIS and 50 mM ethanolamine (T/E) wash buffer for 1 hour at 50° C., followed by two rinses with deionized water. The microarrays were then incubated in a solution of 4×SSC/0.1% SDS for two hours at 50° C. and rinsed in deionized water. This was the final step at which imaging was done to evaluate the respective polymers.

SMILES: C[N+](C)(CC[N+](C)(C)Cc1ccc(C(=O)c2ccccc2)cc1)Cc1ccc(C(=O)c2ccccc2)cc1.[Br-].[Br-] [BBDQ, ethylene(4-benzoylbenzyldimethylammonium)dibromide]
- Presence of microparticles after PBS-Tween wash ([1]; Acrylic substrate): No loss
- Presence of microparticles after high salt wash (4X SSC) ([1]; Acrylic substrate): Complete loss
- Presence of microparticles before washes ([1]; Acrylic substrate): Present
- Presence of microparticles after PBS-Tween wash ([1]; Glass substrate): No loss
- Presence of microparticles after high salt wash (4X SSC) ([1]; Glass substrate): Complete loss
- Presence of microparticles before washes ([1]; Glass substrate): Present
- Presence of microparticles after PBS-Tween wash ([2]; Acrylic substrate): Some loss
- Presence of microparticles after high salt wash (4X SSC) ([2]; Acrylic substrate): Complete loss
- Presence of microparticles before washes ([2]; Acrylic substrate): Present
- Presence of microparticles after PBS-Tween wash ([2]; Glass substrate): Some loss
- Presence of microparticles after high salt wash (4X SSC) ([2]; Glass substrate): Complete loss
- Presence of microparticles before washes ([2]; Glass substrate): Present
